In ChEMBL document CHEMBL1201862, “PubChem BioAssay data set” (2004):
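In this assay, cells in 96-well plates receive the compound at five concentrations for 48 hours. Endpoints are linearly interpolated between the surrounding concentrations. Here, GI50 denotes the concentration required for 50% inhibition of growth.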 Activity calls are given as the source filed them. Cut-off read from the data, not from the text of the source: active = GI50 up to about 1.1 µM and inactive = higher.

Columns and labels:
Assay in all cases: NCI anticancer screen, dose series, 48 h
[1] = test system: HOP-92
[2] = test system: SK-MEL-5
[3] = test system: HOP-62
[4] = test system: TK-10
[5] = test system: Malme-3M
[6] = test system: A498
[7] = test system: NCI-H226
[8] = test system: SF-295
[9] = test system: MDA-MB-231
[10] = test system: Hs-578T
[11] = test system: M14
[12] = test system: OVCAR-5
[13] = test system: HL-60
[14] = test system: COLO 205
[15] = test system: UACC-62
[16] = test system: PC-3
[17] = test system: UO-31
[18] = test system: SR
[19] = test system: DU-145

| Compound | GI50 [1] | GI50 [2] | GI50 [3] | GI50 [4] | GI50 [5] | GI50 [6] | GI50 [7] | GI50 [8] | GI50 [9] | GI50 [10] | GI50 [11] | GI50 [12] | GI50 [13] | GI50 [14] | GI50 [15] | GI50 [16] | GI50 [17] | GI50 [18] | GI50 [19] |
| --- | --- | --- | --- | --- | --- | --- | --- | --- | --- | --- | --- | --- | --- | --- | --- | --- | --- | --- | --- |
| CSC(SC)=C(C#N)C(=O)Nc1cccc(Cl)c1 | 21 µM (inactive) | 10.3 µM (inactive) | 67.9 µM (inactive) | 59.3 µM (inactive) | 79.4 µM (inactive) | 61.1 µM (inactive) | > 100 µM (inactive) | 42.6 µM (inactive) | > 100 µM (inactive) | > 100 µM (inactive) | 47.8 µM (inactive) | 98.2 µM (inactive) | 15.4 µM (inactive) | > 100 µM (inactive) | 59.6 µM (inactive) | 50.4 µM (inactive) |  |  |  |
| NC(=S)N/N=C1\CCCCc2ccccc21 |  |  | > 10 µM (inactive) | > 10 µM (inactive) | > 10 µM (inactive) |  | > 10 µM (inactive) | > 10 µM (inactive) |  |  | > 10 µM (inactive) | > 10 µM (inactive) | > 10 µM (inactive) | > 10 µM (inactive) |  | > 10 µM (inactive) | > 10 µM (inactive) | > 10 µM (inactive) | > 10 µM (inactive) |
| O=S1(=O)OCCOS(=O)(=O)C1F |  | > 100 µM (inactive) | > 100 µM (inactive) | > 100 µM (inactive) | > 100 µM (inactive) |  | > 100 µM (inactive) | > 100 µM (inactive) |  | > 100 µM (inactive) | > 100 µM (inactive) | > 100 µM (inactive) | > 100 µM (inactive) | > 100 µM (inactive) | > 100 µM (inactive) | > 100 µM (inactive) | > 100 µM (inactive) | > 100 µM (inactive) | > 100 µM (inactive) |
| C#CCOCn1cnc2ncnc(N)c21 | > 100 µM (inactive) | > 100 µM (inactive) | > 100 µM (inactive) | > 100 µM (inactive) | > 100 µM (inactive) | > 100 µM (inactive) | > 100 µM (inactive) | > 100 µM (inactive) |  |  |  | > 100 µM (inactive) |  | > 100 µM (inactive) | > 100 µM (inactive) |  | > 100 µM (inactive) | > 100 µM (inactive) |  |
| CCOC(=O)Cc1ccc(Nc2nc3ccccc3nc2C(=O)OCC)cc1 | 43.8 µM (inactive) | 46.1 µM (inactive) | 38.3 µM (inactive) | 37.1 µM (inactive) | 52.1 µM (inactive) | 20.7 µM (inactive) | 4.8 µM (inactive) | 32.9 µM (inactive) |  | 34.5 µM (inactive) | > 100 µM (inactive) | > 100 µM (inactive) | > 100 µM (inactive) | > 100 µM (inactive) | 45.2 µM (inactive) | 62.5 µM (inactive) | 14.5 µM (inactive) | > 100 µM (inactive) | 95.9 µM (inactive) |
| NNC(=O)c1nn[nH]c1C(=O)NN |  | > 100 µM (inactive) | > 100 µM (inactive) | > 100 µM (inactive) | 15.1 µM (inactive) |  |  | > 100 µM (inactive) | > 100 µM (inactive) |  | > 100 µM (inactive) | > 100 µM (inactive) | > 100 µM (inactive) | > 100 µM (inactive) |  | > 100 µM (inactive) | 19 µM (inactive) | > 100 µM (inactive) | > 100 µM (inactive) |
| Cc1nn2c(N)cc(=O)nc2nc1/C=C/c1ccc(N(C)C)cc1 |  | 20.6 µM (inactive) | 9.55 µM (inactive) | > 100 µM (inactive) | 5.2 µM (inactive) |  | > 66.5 µM (inactive) | > 79.3 µM (inactive) |  | 6.84 µM (inactive) | > 28 µM (inactive) | 17.5 µM (inactive) | < 0.01 µM (active) | 7.74 µM (inactive) | 5.02 µM (inactive) | > 100 µM (inactive) | 3.94 µM (inactive) | > 100 µM (inactive) | > 100 µM (inactive) |
| Cc1nc(=O)[nH]c2[nH][nH]c(=O)c12 | > 100 µM (inactive) |  | > 100 µM (inactive) | > 100 µM (inactive) | > 100 µM (inactive) |  | > 100 µM (inactive) | > 100 µM (inactive) |  |  | > 100 µM (inactive) | > 100 µM (inactive) | > 100 µM (inactive) | > 100 µM (inactive) | > 100 µM (inactive) |  |  | > 100 µM (inactive) |  |
| N#Cc1ccccc1Sc1ccccc1N | 20.7 µM (inactive) | 18.7 µM (inactive) | > 100 µM (inactive) | > 100 µM (inactive) | 42.8 µM (inactive) | > 100 µM (inactive) | 13 µM (inactive) | > 100 µM (inactive) |  |  |  | 36.1 µM (inactive) | 72.6 µM (inactive) | > 100 µM (inactive) | 50.1 µM (inactive) |  | 45.6 µM (inactive) | 72.6 µM (inactive) |  |
